Experimental data taken from patent publication US20100137346A1, “DESFE[…] ACTINIDE DEC[…]” (priority 2006, published 2010).
Read-outs that look alike come from different tables or passages of the source.

Assays:
[1] = cited from earlier work; for relative percentages of the iron excreted in the stool and urine / Iron Clearing Efficiency (%): orally to C. apella primates, 150 μmol/kg, data from ref 19 / ref 17
[2] = Renal uranium content in uranyl acetate-treated bile duct-cannulated rats (FIG. 3); type: in vivo, rat
Method: (§1) Desferrithiocin Analogue Induced Excretion of Uranium. In order to compare results with previous chelator-induced iron excretion data, the uranium clearance studies were carried out in a bile duct-cannulated rat model. The animals were given uranyl acetate dihydrate SC at a dose of 5 mg/kg (the actual dose of uranium is 2.8 mg/kg). Bile and urine samples were collected for 24 hours after dosing. Kidneys were removed from selected animals and tissue uranium concentration measured. At least three animals were utilized in each experimental group. Data from two separate control studies (uranyl acetate/ no chelator) have now been combined for a total of 14 control animals. All uranium concentrations were measured using ICPMS. The data are reported as the total quantity of uranium excreted [urine +bile]; the mode of excretion [urine/bile] is also given. In addition the percentage of the administered dose of uranium cleared and chelator-induced uranium excretion vs the controls is also given. Four positive controls were evaluated: DTPA (13, Table 1) given as its trisodium calcium salt, DFO (14), N,N′-bis(2hydroxybenzyl)ethylenediamine-N,N′-diacetic acid, monosodium salt (NaHBED, 15) and the hydroxypyridone CP94 (16) shown to bind uranium [Pashalidis, et al., Effective complex formation in the interaction of 1,2-dimethyl-3-hydroxypyrid-4-one (Deferiprone or L1) with uranium(VI), Journal of Radioanalytical and Nuclear Chemistry 1999; 242:181-184.] The total metal cleared after 24 h in control rats was 10% of the administered dose. When DTPA, 13, was given IP or PO at 300 μmol/kg immediately after uranium, the excretion was 17% and 8% of the administered dose respectively (p>0.05). However, when the drug was given IP at a dose of 600 μmol/kg immediately post-metal, the uranium excretion was significant, 20% (p<0.005). This is consistent with previously published data using a similar animal model.[Domingo, et al., Comparative effects of the chelators sodium 4,5-dihydroxybenzene-1,3-disulfonate (Tiron) and diethylenetriaminepentaacetic acid (DTPA) on acute uranium nephrotoxicity in rats, Toxicology 1997; 118:49-59] DFO (14) and CP94 (16) given IP immediately post uranyl acetate were ineffective.
The most promising analogue in the (S)-2-(2,4-dihydroxyphenyl)-4,5-dihydro-4-thiazolinecarboxylic series is the methoxy analogue (S)-4′-(CH3O)-DADMDFT (11). Given IP at 300 μmol/kg 0.5 h before uranyl acetate or immediately thereafter, nearly 30% of the metal was cleared (Table 1). This was also true if the drug was given IP 0.5 or 2 h post metal. The drug retains some efficacy given 4 h post uranium; 16% of the metal is excreted (p<0.006). When the chelator was given SC immediately post uranium, 40% of the administered metal was cleared. The increased excretion is probably associated with a slower absorption of the ligand. The data from rodents given the drug orally is even more encouraging (Table 1). […] The most profound data are associated with uranium decorporation from the kidneys (FIG. 3). When DTPA is given IP or PO at a dose of 300 μmol/kg immediately post metal, there is no reduction in renal uranium relative to controls. However, (S)-4′-(CH3O)-DADMDFT (11) given orally at a dose of 300 μmol/kg immediately post metal reduces renal uranium by 37% (p<0.005).
There is a small (16%) reduction when the drug is given PO at a dose of 300 μmol/kg 2 h post uranium. However, when 11 is given PO at a dose of 600 μmol/kg 0.5 h post metal, the renal uranium content is reduced by 76% (p<0.001). When given PO at the same dose 1 h post uranium exposure, the reduction is still significant, 42% (p<0.006). In all sets of ligands, the most lipophilic chelator is always the most toxic. […] On the basis of this finding, a less lipophilic, more water-soluble ligand than 12 was assembled, (S)-4′-(HO)-DADFT-PE (18, Table 1), a polyether analogue.

[3] = Chelator-induced uranium excretion (urine + bile, 24 h) in bile duct-cannulated rat model; type: in vivo; settings: for response vs control in vivo at 300 µmol/kg: Rattus norvegicus, ip, 24 h, read-out: Chelator-Induced U Excretion/Control; for uranium clearance, in words: given IP immediately post uranyl acetate, doses per Table 1
Method: as §1
Desferrithiocin Analogue-Induced Excretion of Uranium. In order to compare results with previous chelator-induced iron excretion data, the uranium clearance studies were carried out in a bile duct-cannulated rat model. The animals were given uranyl acetate dihydrate SC at a dose of 5 mg/kg (the actual dose of uranium is 2.8 mg/kg). Bile and urine samples were collected for 24 hours after dosing. Kidneys were removed from selected animals and tissue uranium concentration measured. At least three animals were utilized in each experimental group. Data from two separate control studies (uranyl acetate/ no chelator) are combined for a total of 14 control animals. All uranium concentrations were measured using ICPMS. The data are reported as the total quantity of uranium excreted [urine +bile]; the mode of excretion [urine/bile] is also given. In addition the percentage of the administered dose of uranium cleared and chelator-induced uranium excretion vs the controls is also given. Four positive controls were evaluated: DTPA (1, Table 1) given as its trisodium calcium salt, DFO (2), N,N -bis(2-hydroxybenzyl)ethylenediamine-N,N-diacetic acid, monosodium salt (NaHBED, 3) and the hydroxypyridone CP94 (4) shown to bind uranium. The total metal cleared after 24 h in control rats was 10% of the administered dose. When DTPA, 1, was given IP or PO at 300 μmol/kg immediately after uranium, the excretion was 17% and 8% of the administered dose respectively (p>0.05). However, when the drug was given IP at a dose of 600 μmol/kg immediately post metal, the uranium excretion was significant, 20% (p<0.005). This is consistent with previously published data using a similar animal model.^2 DFO (2) and CP94 (4) given IP immediately post uranyl acetate were ineffective.

[4] = in vivo; cited from earlier work
[5] = rats, same dose; cited from earlier work
[6] = in vivo; cited from earlier work; remark: listed apart in the source
[7] = iron-overloaded C. apella primate

COc1ccc(C2=N[C@@](C)(C(=O)O)CS2)c(O)c1 [drawing 25]
relative percentages of the iron excreted in the stool and urine [1]: 91/9 | Iron Clearing Efficiency (%) [1]: 24.4 ± 10.8%

O=C(O)[C@H]1CSC(c2ccc(O)cc2O)=N1 [drawing 22]
relative percentages of the iron excreted in the stool and urine [1]: 70/30 | Iron Clearing Efficiency (%) [1]: 4.2 ± 1.4%

COc1ccc(C2=N[C@@H](C(=O)O)CS2)c(O)c1 [drawing 24]
relative percentages of the iron excreted in the stool and urine [1]: 81/19 | Iron Clearing Efficiency (%) [1]: 16.2 ± 3.2%

O=C(O)CN(CCN(CC(=O)O)CC(=O)O)CCN(CC(=O)O)CC(=O)O [DTPA, diethylenetriaminepentaacetic acid, reference compound]
reduction in renal uranium relative to controls ([2]; IP 300 μmol/kg immediately post metal): no reduction | reduction in renal uranium relative to controls ([2]; PO 300 μmol/kg immediately post metal): no reduction | % of Administered Dose Cleared ([3]; 300 μmol/kg IP Immediate): 17% | % of Administered Dose Cleared ([3]; 300 μmol/kg PO Immediate): 8% | % of Administered Dose Cleared ([3]; 600 μmol/kg IP Immediate): 20%

C[C@]1(C(=O)O)CSC(c2ccc(O)cc2O)=N1 [drawing 23]
relative percentages of the iron excreted in the stool and urine [1]: 86/14 | Iron Clearing Efficiency (%) [1]: 13.4 ± 5%

O=C(O)[C@H]1CSC(c2ccccc2O)=N1 [Compound 4, (S)-4,5-dihydro-2-(2-hydroxyphenyl)-4-thiazolecarboxylic acid]
toxicity, in words [4]: Severe gastrointestinal (GI) toxicity | ICE ([1]; administered PO at a dose of 150 μmol/kg): 12.4% | ICE [1, 7]: 12% | outcome of planned 10-day dosing regimen [5]: dead by day 5

COCCOCCOCCOc1ccc(C2=N[C@](C)(C(=O)O)CS2)c(O)c1
% of Administered Dose Cleared ([3]; 300 μmol/kg IP Immediate): 22% | Uranium Excretion ([3]; 300 μmol/kg IP Immediate): 626 ± 123 µg/kg | Uranium Excretion [urine/bite] ([3]; 300 μmol/kg IP Immediate): 35/65 | response vs control in vivo at 300 µmol/kg ([3]; 300 μmol/kg IP Immediate): 220%

CC1(C)SC(c2ccccc2O)=N[C@@H]1C(=O)O [drawing 20]
% of Administered Dose Cleared ([3]; 300 μmol/kg IP 0.5 h Post): 7% | Chelator-Induced U Excretion/Control ([3]; 300 μmol/kg IP 0.5 h Post): 0.7 | Uranium Excretion ([3]; 300 μmol/kg IP 0.5 h Post): 200 ± 47 µg/kg | Uranium Excretion [urine/bite] ([3]; 300 μmol/kg IP 0.5 h Post): 37/63 | % of Administered Dose Cleared ([3]; 300 μmol/kg IP Immediate): 26% | Chelator-Induced U Excretion/Control ([3]; 300 μmol/kg IP Immediate): 2.6 | Uranium Excretion ([3]; 300 μmol/kg IP Immediate): 743 ± 189 µg/kg | Uranium Excretion [urine/bite] ([3]; 300 μmol/kg IP Immediate): 8/92

CC(=O)N(O)CCCNC(=O)CCC(=O)N(O)CCCCCNC(=O)CCC(=O)N(O)CCCN
% of Administered Dose Cleared ([3]; 300 μmol/kg IP Immediate): 16% | Uranium Excretion ([3]; 300 μmol/kg IP Immediate): 438 ± 191 µg/kg | Uranium Excretion [urine/bite] ([3]; 300 μmol/kg IP Immediate): 100/0 | response vs control in vivo at 300 µmol/kg ([3]; 300 μmol/kg IP Immediate): 160%

C[C@]1(C(=O)O)CSC(c2ccc(O)cc2O)=N1 [Compound 10, (S)-2-(2,4-dihydroxyphenyl)-4,5-dihydro-4-methyl-4-thiazolecarboxylic acid]
iron-clearing activity, in words ([1]; C. apella model): compatible with iron clearance | ICE ([1]; given orally to the primates at an iron binding equivalent dose): 13.4±5.8% | outcome of planned 10-day dosing regimen [5]: did not display any frank toxicity | % of Administered Dose Cleared ([3]; 300 μmol/kg IP Immediate): 19%

COc1ccc(C2=N[C@](C)(C(=O)O)CS2)c(O)c1
% of Administered Dose Cleared ([3]; 300 μmol/kg IP 0.5 h Post): 15% | Uranium Excretion ([3]; 300 μmol/kg IP 0.5 h Post): 413 ± 148 µg/kg | Uranium Excretion [urine/bite] ([3]; 300 μmol/kg IP 0.5 h Post): 37/63 | % of Administered Dose Cleared ([3]; 300 μmol/kg IP Immediate): 20% | Uranium Excretion ([3]; 300 μmol/kg IP Immediate): 568 ± 133 µg/kg | Uranium Excretion [urine/bite] ([3]; 300 μmol/kg IP Immediate): 59/41 | response vs control in vivo at 300 µmol/kg ([3]; 300 μmol/kg IP 0.5 h Post): 150% | response vs control in vivo at 300 µmol/kg ([3]; 300 μmol/kg IP Immediate): 200%

desferrioxamine [DFO, reference compound]
ICE ([1]; subcutaneous administration, iron-loaded Cebus apella primate): 5.0±2.6% | uranium clearance, in words [3]: ineffective

O=C(O)CN(CCN(CC(=O)O)CC(=O)O)CCN(CC(=O)O)CC(=O)O [drawing 16]
% of Administered Dose Cleared ([3]; 300 μmol/kg IP Immediate): 17% | Chelator-Induced U Excretion/Control ([3]; 300 μmol/kg IP Immediate): 1.7 | Uranium Excretion ([3]; 300 μmol/kg IP Immediate): 469 ± 271 µg/kg | Uranium Excretion [urine/bite] ([3]; 300 μmol/kg IP Immediate): 99/1 | % of Administered Dose Cleared ([3]; 300 μmol/kg PO Immediate): 8% | Chelator-Induced U Excretion/Control ([3]; 300 μmol/kg PO Immediate): 0.8 | Uranium Excretion ([3]; 300 μmol/kg PO Immediate): 235 ± 205 µg/kg | Uranium Excretion [urine/bite] ([3]; 300 μmol/kg PO Immediate): 100/0 | % of Administered Dose Cleared ([3]; 600 μmol/kg IP Immediate): 20% | Chelator-Induced U Excretion/Control ([3]; 600 μmol/kg IP Immediate): 2.0 | Uranium Excretion ([3]; 600 μmol/kg IP Immediate): 548 ± 147 µg/kg | Uranium Excretion [urine/bite] ([3]; 600 μmol/kg IP Immediate): 100/0

O=C(O)[C@H]1CSC(c2ncccc2O)=N1 [Compound 2, (S)-4,5-dihydro-2-(3-hydroxy-2-pyridinyl)-4-thiazolecarboxylic acid]
ICE [1, 7]: 4.8%

COc1ccc(C2=N[C@@](C)(C(=O)O)CS2)c(O)c1 [Compound 12, (S)-4,5-dihydro2-(2-hydroxy-4-methoxyphenyl)4-methyl-4-thiazolecarboxylic acid]
toxicity, in words [4]: too toxic for clinical consideration | iron-clearing efficiency, in words ([1]; in both rodents and primates): excellent iron-clearing efficiency | metabolite formed by metabolic O-demethylation [6]: (S)-4′-(HO)-DADFT (10) | % of Administered Dose Cleared ([3]; 300 μmol/kg IP Immediate): 20% | uranium excretion, in words ([3]; IP 300 μmol/kg, given 0.5 h post metal): within error of control

C[C@]1(C(=O)O)CSC(c2ccccc2O)=N1 [Compound 3, (S)-4,5-dihydro-2-(2-hydroxyphenyl)-4-methyl-4-thiazolecarboxylic acid]
toxicity, in words [4]: Severe gastrointestinal (GI) toxicity | ICE [1, 7]: 13% | outcome of planned 10-day dosing regimen [5]: dead by day 5

CCC1=C(O)C(=O)CCN1CC [CP94, reference compound]
uranium clearance, in words [3]: ineffective
